From patent US20040037799A1, “Malodor suppression by fragrance composition” (priority 2002, published 2004)

How the values were obtained:
[1] = Malodor coverage by individual fragrance materials (Table 1)
[2] = Air diffusion coefficient of perfume materials; type: physicochemical

Molecule | Air Diffusion Coefficient [2] [cm²/s] | Average Coverage ([1]; tested only at 5 and 38 C) | Average Coverage ([1]; scale not defined)
C=C1C2CCC(C2)C1(C)C (stereo not shown) | 0.0613 | 3.0 | 
CCCCCCCCCCC=CC#N | 0.0432 |  | 3.0
C=CCOC(=O)CCC1CCCCC1 [ALLYL CYCLOHEXYL PROPIONATE] | 0.0486 |  | 2.6
C=CCOC(=O)CCCCCC [ALLYL HEPTOATE (C-7), ALLYL HEPTOATE] | 0.0523 |  | 2.6
CC(C)CCOCCc1ccccc1 [ANTHER] | 0.0486 |  | 2.6
O=Cc1ccccc1 [BENZALDEHYDE] | 0.075 |  | 
CO[C@]1(C)CC[C@@]23C[C@@H]1C(C)(C)[C@@H]2CC[C@H]3C [CEDRAMBER] |  |  | 2.3
CCCCCCCCCCCC#N [CLONAL] | 0.0466 |  | 3.0
OCCC1CCCCC1 [CYCLOHEXYL ETHANOL] | 0.0629 |  | 2.0
CCCCCC1CCCC1=O (stereo not shown) [DELPHONE, FIRMENICH] | 0.0546 |  | 4.0
CCOC(=O)CC(C)=O [ETHYL ACETOACETATE] | 0.0554 |  | 1.6
CC(C)CC1CC(C)(O)CCO1 (stereo not shown) [FLOROL] | 0.0521 |  | 3.0
CCCCCCC(C=O)=Cc1ccccc1 [HEXYL CINNAMIC ALDEHYDE] | 0.0445 |  | 2.3
CC(C)C1CCC(CO)CC1 (stereo not shown) [MAYOL] | 0.0545 |  | 2.3
CC(C)=CCCC(C)C=O (stereo not shown) [MELONAL] | 0.0579 |  | 2.0
C=CCc1ccc(OC)cc1 [METHYL CHAVICOL] | 0.0591 |  | 2.3
COc1ccc2ccccc2c1 [NEROLIN YARA YARA 10%] |  |  | 2.6
COC(Cc1ccccc1)OC [PADMA] | 0.0571 |  | 3.3
CC(C)OCCc1ccccc1 [PETIOLE] |  |  | 2.6
CC(=O)OCC=C(C)C [PRENYL ACETATE] | 0.0649 |  | 1.0
CC1CC(C)(c2ccccc2)CO1 (stereo not shown) [RHUBAFURAN] |  |  | 2.6
CC1=CCC2C3CC(C2C1)C1(C3)OC1C (stereo not shown) [RHUBOFIX] |  |  | 3.0
CC(=O)c1cc2c(cc1C)C(C)(C)C(C)CC2(C)C (stereo not shown) [TONALID 10%] |  |  | 2.0
CCCCCC1(C)CCC(C)(C)C1=O (stereo not shown) [VELOUTONE] | 0.0459 |  | 3.0
METHYL NAPTHYL KETONE [METHYL NAPTHYL KETONE 10%] | 0.0552 |  | 2.0

Further lines, with some results ahead:

Air Diffusion Coefficient [2] [cm²/s] | Molecule | Average Coverage ([1]; tested only at 5 and 38 C) | Average Coverage ([1]; scale not defined)
0.0477 | c1ccc(CCOC2CCCCC2)cc1 |  | 2.3
0.0492 | CC(=O)O[C@@H]1C[C@H]2CC[C@]1(C)C2(C)C (racemic) [ISO BORNYL ACETATE] |  | 2.6
0.0425 | C[C@@H]1CC[C@H]2C(C)(C)[C@H]3C[C@@]12CC[C@@]3(C)O [CEDROL LIQUID 10%, CEDROL] |  | 3.3
0.0547 | CC1CCC(C(C)(C)O)CC1 (stereo not shown) [DIHYDRO TERPINEOL] |  | 2.0
0.0499 | CCc1ccc(CC(C)(C)C=O)cc1 [FLORAZONE] |  | 3.6
0.0478 | CC(=O)OC/C=C(\C)CCC=C(C)C [GERANYL ACETATE] |  | 1.0
0.0418 | CC(=O)C1(C)CC2=C(CCCC2(C)C)CC1C (stereo not shown) [ISO E SUPER] |  | 3.3
0.047 | CC(C=O)Cc1ccc(C(C)(C)C)cc1 (stereo not shown) [LILIAL] |  | 2.6
0.0676 | OCCc1ccccc1 [PHENYL ETHYL ALCOHOL] |  | 4.3
0.0444 | CC/C(=C\CC1CC=C(C)C1(C)C)CO (stereo not shown) [SANDRANOL] |  | 3.3
0.0533 | CCC(C)(O)CCCC(C)C (stereo not shown) [TETRAHYDRO LINAILOOL] |  | 2.6
0.0453 | METHYL IONONE GAMMA |  | 3.3
